Tested on: Eschericia coli strain ATCC25922
Assay: standard microdilution assay to determine minimum inhibitory concentrations (MICs)
Assay type: cell-based
Settings: Escherichia coli, ATCC25922, Eschericia coli strain ATCC25922, standard microdilution assay; read-out: E. coli ATCC25922 MIC
Protocol: Minimum inhibitory concentrations (MICs) are determined by the microdilution method, typically in a final volume of 100 microliters, according to protocols outlined by The Clinical and Laboratory Standards Institute [CLSI; formerly the National Committee for Clinical Laboratory Standards (NCCLS)]. See CLSI: Methods for dilution antimicrobial susceptibility tests for bacteria that grow aerobically; approved standard-fifth edition. Wayne, Pa.: NCCLS; 2000. The assays can be also be performed in microtiter trays according to conventional methodologies as published by the CLSI. See CLSI. Methods for Dilution Antimicrobial Susceptibility Tests for Bacteria That Grow Aerobically; Approved Standard-Seventh Edition. CLSI Document M7-A7 [ISBN 1-56238-587-9] CLSI, 940 West Valley Road, Suite 1400, Wayne Pa. 19087-1898 USA, 2006).
The compounds of the present invention were tested for antimicrobial activity. The compounds were run against Eschericia coli strain ATCC25922 using a standard microdilution assay to determine minimum inhibitory concentrations (MICs). […] A “N/A” means that data is unavailable. It will be recognized by one skilled in the art that the compounds can be assessed against other bacterial organisms and that the presentation of data for activity against Eschericia coli is illustrative and in no way is intended to limit the scope of the present invention. The compounds of the present invention can be assayed against a range of other microorganisms depending upon the performance activity desired to be gathered. Furthermore, the “+”, “−”, and “N/A” representation and the selection of a cutoff value of 16 micrograms/ml is also illustrative and in no way is intended to limit the scope of the present invention.

| Structure (SMILES) | MIC |
| --- | --- |
| N=C(N)NCCCN(CCCN)Cc1ccc(-c2c[nH]c(Nc3ccc(C(F)(F)F)cc3)nc2=O)cc1F [Compound 490] | > 16 µg/mL |
| NCCCN(CCCNC(N)=O)Cc1ccc(-c2c[nH]c(NC(=O)Nc3ccccc3OC(F)(F)F)nc2=O)cc1 [Compound 394] | < 16 µg/mL |
| Cn1ncc(C(=O)Nc2nc(=O)c(-c3ccc(CN(CCCN)CCCN)cc3)c[nH]2)c1Cl [Compound 174] | > 16 µg/mL |
| NCCCNCc1ccc(-c2c[nH]c(NC(=O)Nc3cccc4nsnc34)nc2=O)cc1F [Compound 445] | > 16 µg/mL |
| CN(C(=O)C[C@H](CCCNC(=N)N)NC(=O)CCCN)C1CNC(NC(N)=O)=NC1=O (stereo partly drawn) [Compound 102] | > 16 µg/mL |
| N=C(N)NCCCNCc1ccc(-c2c[nH]c(NC(=O)Nc3cccc(Cl)c3F)nc2=O)cn1 [Compound 593] | < 16 µg/mL |
| CC(C)=CCN(CCCN)Cc1ccc(-c2c[nH]c(NC(=O)Nc3cc(F)c(F)cc3F)nc2=O)cc1 [Compound 303] | < 16 µg/mL |
| O=C(Nc1nc(=O)c(-c2ccc(CNCCCO)cc2)c[nH]1)Nc1ccccc1OC(F)(F)F [Compound 277] | > 16 µg/mL |
| NCCCN(CCCN)Cc1ccc(-c2c[nH]c(Nc3nc4cc(F)c(F)cc4o3)nc2=O)cc1F [Compound 356] | < 16 µg/mL |
| NCCCN(CCCN)Cc1ccc(-c2c[nH]c(NC(=O)Nc3ccc(C(F)(F)F)cc3)nc2=O)cc1 [Compound 172] | < 16 µg/mL |
| NCCCNCc1ccc(-c2c[nH]c(NC(=O)Nc3ccccc3OC(F)(F)F)nc2=O)c(F)c1 [Compound 432] | < 16 µg/mL |
| N=C(N)NCCCNCc1ccc(-c2c[nH]c(NC(=O)NC3CN(C(=O)Nc4cc(F)c(F)cc4F)C3)nc2=O)cc1 [Compound 747] | < 16 µg/mL |
| N=C(N)NCCCCN1CCC(c2c[nH]c(NC(=O)Nc3cccc(Cl)c3F)nc2=O)CC1 [Compound 547] | > 16 µg/mL |
| CN(C(=O)C[C@H](CCCNC(=N)N)NC(=N)N)C1CNC(NC(N)=O)=NC1=O (stereo partly drawn) [Compound 105] | > 16 µg/mL |
| NCCCN(Cc1ccc(-c2c[nH]c(NC(=O)Nc3ccccc3OC(F)(F)F)nc2=O)cc1)CC1CC1 [Compound 312] | < 16 µg/mL |
| NCCCCCN1CCN(c2c[nH]c(NC(=O)Nc3ccccc3OC(F)(F)F)nc2=O)CC1 [Compound 518] | > 16 µg/mL |
| NCCCN(CCCC(=O)O)Cc1ccc(-c2c[nH]c(NC(=O)Nc3cc(F)c(F)cc3F)nc2=O)cc1 [Compound 358] | > 16 µg/mL |
| CN(C(=O)C[C@@H](N)CCCNC(=N)N)C1CNC(NC(=O)c2ccc(NC(=O)[C@@](C)(N)CO)cc2)=NC1=O (stereo partly drawn) [Compound 110] | < 16 µg/mL |
| NC[C@@H](N)c1cn(-c2ccc(-n3ccc(NC(N)=O)nc3=O)cc2)nn1 [Compound 150] | > 16 µg/mL |
| NCc1ccc(-c2c[nH]c(NC(=O)Nc3cc(F)c(F)cc3F)nc2=O)cc1 [Compound 238] | > 16 µg/mL |
| NCCCNCc1ccc(-c2c[nH]c(NC(=O)Nc3ccc(OC(F)F)cc3)nc2=O)cc1Cl [Compound 244] | > 16 µg/mL |
| NCCCNCc1ccc(-c2c[nH]c(NC(=O)Nc3c(Cl)cc(Cl)cc3Cl)nc2=O)cc1F [Compound 461] | > 16 µg/mL |
| N#CCCCN(CCCN)Cc1ccc(-c2c[nH]c(NC(=O)Nc3cc(F)c(F)cc3F)nc2=O)cc1 [Compound 443] | > 16 µg/mL |

| Structure (SMILES) | MIC |
| --- | --- |
| NCCCCOc1nccc(N)n1 [Compound 128] | > 16 µg/mL |
| NCCCCCN1CCC(c2c[nH]c(Nc3nc4ccccc4[nH]3)nc2=O)CC1 [Compound 499] | > 16 µg/mL |
| CN(CCCNCc1ccc(-c2c[nH]c(NC(=O)Nc3cc(F)c(F)cc3F)nc2=O)cc1)C(=N)N [Compound 353] | > 16 µg/mL |
| Nc1ccn(CCC[C@@H](N)CCCOCc2ccccc2)c(=O)n1 [Compound 119] | > 16 µg/mL |
| N=C(N)NCCCNCc1ccc(-c2c[nH]c(NC(=O)Nc3ccccc3OC(F)(F)F)nc2=O)cc1 [Compound 332] | < 16 µg/mL |
| N=C(N)NCc1ccc(-n2ccc(N)nc2=O)cc1 [Compound 127] | > 16 µg/mL |
| O=C(Nc1nc(=O)c(-c2ccc(CNCCCCO)cc2)c[nH]1)Nc1cc(F)c(F)cc1F [Compound 341] | > 16 µg/mL |
| NCCCNCc1ccc(-c2c[nH]c(NC(=O)NCCc3cccc(Cl)c3)nc2=O)cc1F [Compound 421] | > 16 µg/mL |
| O=C(O)CCCNCc1ccc(-c2c[nH]c(NC(=O)Nc3cc(F)c(F)cc3F)nc2=O)cc1 [Compound 327] | > 16 µg/mL |
| NCCCN(CCCN)Cc1ccc(-c2c[nH]c(NC(=O)Nc3ccccc3OC(F)(F)F)nc2=O)cc1F [Compound 308] | < 16 µg/mL |
| N=C(N)NCCCCN1CCN(c2c[nH]c(NC(=O)Nc3ccccc3OC(F)(F)F)nc2=O)CC1 [Compound 534] | > 16 µg/mL |
| NCCCNCc1ccc(-c2c[nH]c(NC(=O)Nc3ccccc3OC(F)(F)F)nc2=O)cc1F [Compound 246] | < 16 µg/mL |
| NCCCNCc1ccc(-c2c[nH]c(Nc3nc4cc(F)c(F)cc4o3)nc2=O)cc1 [Compound 454] | < 16 µg/mL |
| CN(C(=O)C[C@H](CCCNC(=N)N)NC(=O)CCNC(=N)N)C1CNC(NC(N)=O)=NC1=O (stereo partly drawn) [Compound 107] | > 16 µg/mL |
| N[C@H]1CCN(CCc2c[nH]c(NC(=O)Nc3ccccc3OC(F)(F)F)nc2=O)C1 [Compound 381] | > 16 µg/mL |
| N=C(N)NCc1ccc(-n2ccc(NC(N)=O)nc2=O)cc1 [Compound 126] | > 16 µg/mL |
| NCCCN(Cc1ccncc1)Cc1ccc(-c2c[nH]c(NC(=O)Nc3cc(F)c(F)cc3F)nc2=O)cc1 [Compound 337] | < 16 µg/mL |
| O=C(O)CCNCc1ccc(-c2c[nH]c(NC(=O)Nc3ccccc3OC(F)(F)F)nc2=O)cc1 [Compound 300] | > 16 µg/mL |
| NCCCCCN1CCN(c2c[nH]c(Nc3nc4ccccc4[nH]3)nc2=O)CC1 [Compound 514] | > 16 µg/mL |
| N=C(N)NCCC[C@@H](CCCn1ccc(NC(=O)Nc2ccc(C(F)(F)F)cc2)nc1=O)NCCCN [Compound 165] | > 16 µg/mL |
| N=C(N)NCc1cn(-c2ccc(-n3ccc(NC(N)=O)nc3=O)cc2)nn1 [Compound 141] | > 16 µg/mL |
| NCCCCN1CCN(c2c[nH]c(NC(=O)Nc3cccc(Cl)c3F)nc2=O)CC1 [Compound 521] | > 16 µg/mL |
| N=C(N)NCCCN(CCCN)Cc1ccc(-n2ccc(NC(=O)Nc3ccc(F)c(F)c3)nc2=O)cc1 [Compound 223] | > 16 µg/mL |

| Structure (SMILES) | MIC |
| --- | --- |
| NCCCNCc1ccc(-c2c[nH]c(Nc3nc4ccccc4o3)nc2=O)cc1F [Compound 588] | < 16 µg/mL |
| N=C(N)NCCCN1CCCN(c2c[nH]c(NC(=O)Nc3ccccc3OC(F)(F)F)nc2=O)CC1 [Compound 491] | > 16 µg/mL |
| NCCCNCc1ccc(-c2c[nH]c(NC(=O)Nc3ccccc3OCCCO)nc2=O)cc1 [Compound 1294] | > 16 µg/mL |
| NCCCN(CCc1ccncc1)Cc1ccc(-c2c[nH]c(NC(=O)Nc3ccccc3OC(F)(F)F)nc2=O)cc1 [Compound 347] | > 16 µg/mL |
| O=C(Nc1nc(=O)c(CCN2CCNCC2)c[nH]1)Nc1ccccc1OC(F)(F)F [Compound 368] | > 16 µg/mL |
| O=C(Nc1nc(=O)c(-c2ccc(CNCC3CC3)cc2)c[nH]1)Nc1cc(F)c(F)cc1F [Compound 275] | > 16 µg/mL |
| NCCCNCc1ccc(-c2c[nH]c(NCCc3nc4cc(F)c(F)cc4[nH]3)nc2=O)cc1F [Compound 607] | > 16 µg/mL |
| CN(C(=O)C[C@H](CCCNC(=N)N)NC(=O)CCN)C1CNC(NC(N)=O)=NC1=O (stereo partly drawn) [Compound 103] | > 16 µg/mL |
| NCc1ccc(-n2ccc(NC(N)=O)nc2=O)cc1 [Compound 139] | > 16 µg/mL |
| Cn1ccnc1CNCc1ccc(-c2c[nH]c(NC(=O)Nc3cc(F)c(F)cc3F)nc2=O)cc1 [Compound 299] | > 16 µg/mL |
| NCCCNCc1ccc(-c2c[nH]c(NC(=O)NCc3ccc(F)cc3)nc2=O)cc1F [Compound 255] | > 16 µg/mL |
| N=C(N)NCCCNCc1ccc(-c2c[nH]c(NC(=O)NCCCc3ccccc3OC(F)(F)F)nc2=O)cc1F [Compound 540] | > 16 µg/mL |
| NCCCCN1CCC(c2c[nH]c(NC(=O)Nc3ccccc3OC(F)(F)F)nc2=O)CC1 [Compound 537] | > 16 µg/mL |
| CN(C)c1ccc(NC(=O)Nc2nc(=O)c(-c3ccc(CN(CCCN)CCCN)cc3)c[nH]2)cc1 [Compound 188] | > 16 µg/mL |
| NCCCN(CCCN)Cc1c(F)cc(-c2c[nH]c(NC(=O)Nc3ccccc3OC(F)(F)F)nc2=O)cc1F [Compound 294] | < 16 µg/mL |
| NCC[C@H](N)C(=O)N1CCN(C2C=NC(NC(N)=O)=NC2=O)CC1 (stereo partly drawn) [Compound 161] | > 16 µg/mL |
| N=C(N)NCCCCCN1CCC(c2c[nH]c(NC(=O)Nc3ccccc3OC(F)(F)F)nc2=O)CC1 [Compound 584] | > 16 µg/mL |
| NCCCN(CCCC(=O)O)Cc1ccc(-c2c[nH]c(NC(=O)Nc3ccccc3OC(F)(F)F)nc2=O)cc1 [Compound 359] | > 16 µg/mL |
| NCCCN(CCCN)Cc1ccc(-c2c[nH]c(Nc3nc4ccccc4[nH]3)nc2=O)cc1 [Compound 473] | > 16 µg/mL |
| NCCCNCc1ccc(-c2c[nH]c(Nc3nc4cc(F)c(F)cc4[nH]3)nc2=O)c(F)c1 [Compound 458] | < 16 µg/mL |
| Cc1c(C(=O)Nc2ccn(CCC[C@H](CCCNC(=N)N)NCCCN)c(=O)n2)ccn1-c1ccc(Cl)cc1 [Compound 158] | > 16 µg/mL |
| N=C(N)NCCC[C@@H](CCCn1ccc(NC(=O)Nc2cc(F)c(F)cc2F)nc1=O)NCCCN [Compound 164] | > 16 µg/mL |
| N=C(N)NCCCN(CCCN)Cc1ccc(-c2c[nH]c(NC(=O)Nc3cc(F)c(F)cc3F)nc2=O)cc1 [Compound 348] | > 16 µg/mL |
